What was measured:
[1] = target: T1, human B1R (bradykinin receptor 1) (Homo sapiens, UniProt P46663); assay: FLIPR Ca2+ assay (Fluo-4) on CHO K1 cells stably transfected with the human B1R gene (hB1R cells): % inhibition at 10 μM / IC50, agonist Lys-Des-Arg9-bradykinin; assay type: cell-based; conditions: for inhibition at 10 µM: CHO-K1, human B1R
T1 construct: expressed in transfected cells; host or cells: CHO K1 cells
T1 sequence (P46663 1-353): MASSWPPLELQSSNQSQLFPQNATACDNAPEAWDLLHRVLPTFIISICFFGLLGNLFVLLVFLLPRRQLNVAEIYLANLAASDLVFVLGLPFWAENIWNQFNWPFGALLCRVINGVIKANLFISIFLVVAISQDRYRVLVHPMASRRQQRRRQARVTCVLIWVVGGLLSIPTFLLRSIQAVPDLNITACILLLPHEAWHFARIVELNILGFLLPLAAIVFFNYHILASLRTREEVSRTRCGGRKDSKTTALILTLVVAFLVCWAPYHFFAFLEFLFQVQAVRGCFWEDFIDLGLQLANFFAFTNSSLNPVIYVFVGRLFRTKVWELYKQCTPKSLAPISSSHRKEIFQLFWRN
Method in brief: (§1)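 Antagonism is measured as the drop in peak Fluo-4 Ca2+ signal when the EC80 agonist follows 10–20 min compound exposure. The single-point screen uses 10 μM; IC50 uses several concentrations. Values are given as % of maximal achievable inhibition.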

[2] = target: T2, rat B1R (bradykinin receptor 1) (Rattus norvegicus, UniProt P97583); assay: FLIPR Ca2+ assay (Fluo-4) on CHO K1 cells stably transfected with the B1R gene of the rat (rB1R cells): % inhibition at 10 μM / IC50, agonist Des-Arg9-bradykinin; assay type: cell-based; conditions: for inhibition at 10 µM: CHO-K1, rat B1R
T2 construct: expressed in transfected cells; host or cells: CHO K1 cells
T2 sequence (P97583 1-337): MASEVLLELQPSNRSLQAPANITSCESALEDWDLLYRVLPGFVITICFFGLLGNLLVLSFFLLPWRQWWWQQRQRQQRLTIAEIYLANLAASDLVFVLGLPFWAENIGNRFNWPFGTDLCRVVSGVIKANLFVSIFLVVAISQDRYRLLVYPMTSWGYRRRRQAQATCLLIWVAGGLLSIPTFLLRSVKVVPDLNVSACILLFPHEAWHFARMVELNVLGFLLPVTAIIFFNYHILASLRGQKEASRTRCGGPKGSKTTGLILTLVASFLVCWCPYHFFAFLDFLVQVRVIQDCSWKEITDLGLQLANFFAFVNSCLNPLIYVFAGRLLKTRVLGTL
Method in brief: as §1

Structure (SMILES)	inhibition at 10 µM [1] [%]	inhibition at 10 µM [2] [%]	% Inhibition (human B1R) at 10 μM ([1]; human B1R, 10 µM) [%]	% Inhibition (rat B1R) at 10 μM ([2]; rat B1R, 10 µM) [%]
O=C(NC1CCc2ccc(C(=O)N3CCC4(CC3)CCN(c3ccncc3)CC4)cc21)c1ccccn1 (centres unmarked) [Ind_CC-002, N-[6-(9-pyridin-4-yl-3,9-diazaspiro[5.5]undecane-3-carbonyl)-2,3-dihydro-1H-inden-1-yl]-pyridine-2-carboxylic acid amide]	97	85		
CC1(C)CC(NC(=O)/C=C/c2ccccc2Cl)c2cc(C(=O)N3CCC4(CC3)CCN(c3ccncc3)CC4)ccc21 (centres unmarked) [Ind_CC-060, (E)-3-(2-chlorophenyl)-N-[3,3-dimethyl-6-(9-pyridin-4-yl-3,9-diazaspiro[5.5]undecane-3-carbonyl)-1,2-dihydro-inden-1-yl]-acrylamide]	93	94		
CN(C(=O)c1cc(F)c(F)cc1Cl)C1CCc2ccc(C(=O)N3CCC4(CC3)CCN(c3ccncc3)CC4)cc21 (centres unmarked) [IND_CC-224, 2-Chloro-4,5-difluoro-N-methyl-N-[6-(9-pyridin-4-yl-3,9-diazaspiro[5.5]undecane-3-carbonyl)-2,3-dihydro-1H-inden-1-yl]-benzamide]	100	103		
O=C(NC1CCc2ccc(C(=O)N3CCC4(CC3)CCN(c3ccncc3)C4)cc21)c1cc(C(F)(F)F)ccc1Cl (centres unmarked) [IND_CC-218, 2-Chloro-N-[6-(2-pyridin-4-yl-2,8-diazaspiro[4.5]decane-8-carbonyl)-2,3-dihydro-1H-inden-1-yl]-5-(trifluoromethyl)-benzamide]	94	103		
CC1(C)Cc2ccc(C(=O)N3CCC4(CC3)CCN(c3ccncc3)CC4)cc2C1NC(=O)c1ccccc1C(F)(F)F (centres unmarked) [Ind_CC-064, N-[2,2-dimethyl-6-(9-pyridin-4-yl-3,9-diazaspiro[5.5]undecane-3-carbonyl)-1,3-dihydro-inden-1-yl]-2-(trifluoromethyl)-benzamide]	95	101		
Cc1cccc(C)c1C(=O)NC1CCc2ccc(C(=O)N3CCC4(CC3)CCN(c3ccncc3)C4)cc21 (centres unmarked) [IND_CC-295, 2,6-Dimethyl-N-[6-(2-pyridin-4-yl-2,8-diazaspiro[4.5]decane-8-carbonyl)-2,3-dihydro-1H-inden-1-yl]-benzamide]	96	106		
Cc1ccc(C(=O)NC2CCc3ccc(C(=O)N4CCC5(CC4)CCN(c4ccncc4)CC5)cc32)c(F)c1 (centres unmarked) [IND_CC-305, 2-Fluoro-4-methyl-N-[6-(9-pyridin-4-yl-3,9-diazaspiro[5.5]undecane-3-carbonyl)-2,3-dihydro-1H-inden-1-yl]-benzamide]	67	104		
Cc1ccc(F)c(C(=O)NC2CCc3ccc(C(=O)N4CCC5(CCN(c6ccncc6)CC5)C4)cc32)c1Cl (centres unmarked) [IND_CC-249, 2-Chloro-6-fluoro-3-methyl-N-[6-(8-pyridin-4-yl-2,8-diazaspiro[4.5]decane-2-carbonyl)-2,3-dihydro-1H-inden-1-yl]-benzamide]	99	99		
O=C(c1ccc2c(c1)C(N(C(=O)c1ccccc1Cl)C1CC1)CC2)N1CCC2(CC1)CCN(c1ccc(F)cc1)CC2 (centres unmarked) [Ind_CC-115, 2-chloro-N-cyclopropyl-N-[6-[9-(4-fluorophenyl)-3,9-diazaspiro[5.5]undecane-3-carbonyl]-2,3-dihydro-1H-inden-1-yl]-benzamide]	22	64		
CC1(C)Cc2ccc(C(=O)N3CCC4(CC3)CCN(c3ccncc3)CC4)cc2C1NS(=O)(=O)Cc1ccccc1C(F)(F)F (centres unmarked) [IND_CC-238, N-[2,2-Dimethyl-6-(9-pyridin-4-yl-3,9-diazaspiro[5.5]undecane-3-carbonyl)-1,3-dihydro-inden-1-yl]-1-[2-(trifluoromethyl)-phenyl]-methanesulfonic acid amide]	99	100		

More lines, now with the values ahead:

inhibition at 10 µM [1] [%]	inhibition at 10 µM [2] [%]	% Inhibition (human B1R) at 10 μM ([1]; human B1R, 10 µM) [%]	% Inhibition (rat B1R) at 10 μM ([2]; rat B1R, 10 µM) [%]	Structure (SMILES)
99	101			CN([C@@H]1CCc2ccc(C(=O)N3CCC4(CCN(c5ccncc5)CC4)C3)cc21)S(=O)(=O)c1ccccc1Cl [Example H-136, 2-Chloro-N-methyl-N-[(1R)-6-(8-pyridin-4-yl-3,8-diazaspiro[4.5]decane-3-carbonyl)-2,3-dihydro-1H-inden-1-yl]-benzenesulfonic acid amide]
100	102			COc1cc(C)c(S(=O)(=O)N[C@@H]2CCCc3ccc(C(=O)N4CCC5(CCN(c6ccncc6)CC5)C4)cc32)c(C)c1 [Example H-16, 4-methoxy-2,6-dimehtyl-N-[(1R)-7-(8-pyridin-4-yl-3,8-diazaspiro[4.5]decane-3-carbonyl)-1,2,3,4-tetrahydro-naphthalen-1-yl]-benzenesulfonic acid amide]
100	103			O=C(c1ccc2c(c1)[C@H](NS(=O)(=O)c1c(Cl)cccc1C(F)(F)F)CC2)N1CCC2(CCN(c3ccncc3)CC2)C1 [Example H-149, 2-Chloro-N-[(1R)-6-(8-pyridin-4-yl-3,8-diazaspiro[4.5]decane-3-carbonyl)-2,3-dihydro-1H-inden-1-yl]-6-(trifluoromethyl)-benzenesulfonic acid amide]
100	111			COc1ccc(C(=O)N[C@@H]2CCc3ccc(C(=O)N4CCC5(CCN(c6ccncc6)CC5)C4)cc32)c(F)c1 [Example H-108, 2-Fluoro-4-methoxy-N-[(1R)-6-(8-pyridin-4-yl-3,8-diazaspiro[4.5]decane-3-carbonyl)-2,3-dihydro-1H-inden-1-yl]-benzamide]
		98	104	COc1cc(C)c(S(=O)(=O)NC2CCc3ccc(C(=O)N4CCC5(CC4)CCN(c4ccncc4)CC5)cc32)c(C)c1 (centres unmarked) [Example H-03, 4-methoxy-2,6-dimethyl-N-[6-(9-pyridin-4-yl-3,9-diazaspiro[5.5]undecane-3-carbonyl)-2,3-dihydro-1H-inden-1-yl)-benzenssulfonic acid amide]
94	99			O=C(NC1CCc2ccc(C(=O)N3CCC4(CCN(c5ncc(C(F)(F)F)cn5)CC4)C3)cc21)c1ccccc1Cl (centres unmarked) [Example H-130, 2-Chloro-N-[6-[8-[5-(trifluoromethyl)-pyrimidin-2-yl]-3,8-diazaspiro[4.5]decane-3-carobnyl]-2,3-dihydro-1H-inden-1-yl]-benzamide]
13	61			O=C(N[C@@H]1CCc2c(C(=O)N3CCC4(CCN(c5ccncc5)CC4)C3)cccc21)c1ccccc1Cl [Example H-162, 2-Chloro-N-[(1R)-4-(8-pyridin-4-yl-3,8-diazaspiro[4.5]decane-3-carbonyl)-2,3-dihydro-1H-inden-1-yl]-benzamide]
100	104			O=C(c1ccc2c(c1)[C@H](N1Cc3cccc(Cl)c3C1=O)CC2)N1CCC2(CCN(c3ccncc3)CC2)C1 [Example H-96, 7-Chloro-2-[(1R)-6-(8-pyridin-4-yl-3,8-diazaspiro[4.5]decane-3-carbonyl)-2,3-dihydro-1H-inden-1-yl]-2,3-dihydro-isoindol-1-one]
100	104			O=C(N[C@@H]1CCc2ccc(C(=O)N3CCC4(CCN(c5ccncc5)CC4)C3)cc21)c1cncnc1 [Example H-84, N-[(1R)-6-(8-Pyridin-4-yl-3,8-diazaspiro[4.5]decane-3-carbonyl)-2,3-dihydro-1H-inden-1-yl]-pyrimidine-5-carboxylic acid amide]
